Where a name gives a salt, the structure may show the parent alone. Read-outs that look alike come from different tables or passages of the source.
Biological target: Full-length inactive AKT1 (Homo sapiens, UniProt P31749)
Experiment: Inactive Akt Alpha Screen Assay
Type: biochemical
Method: AKT1 activity was assayed using the GSK3-derived biotinylated peptide substrate, crosstide (biotin-[…]), and AlphaScreen™ (Amplified Luminescent Proximity Homogeneous Assay) technology. AKT1 activation was achieved by the addition of the activating kinases PDK1 and MAPKAPK2, lipid vesicles, and ATP. The extent of peptide phosphorylation was determined using a phospho-AKT substrate antibody and acceptor beads conjugated to Protein A and donor beads conjugated to streptavidin that bind to the biotin on the peptide. Excitation of the donor beads converted ambient oxygen to excited singlet oxygen which, when in close proximity to acceptor beads, reacted with acceptor beads resulting in signal amplification.
Assay plates were incubated for 90 minutes at room temperature in the dark, and the plates were read on a Perkin Elmer Envision Multilabel plate reader (excitation wavelength: […], emission wavelength: 570 nm).

[1] = values not marked with "*", read-out: Akt1 IC50, (AlphaScreen)
[2] = values not marked with "*": AlphaScreen assay, read-out: Akt1 IC50, (AlphaScreen)
[3] = AlphaScreen assay (values not marked with *), read-out: Akt1 IC50, (AlphaScreen) (μM) (or if marked with “*” HTRF assay)

Sequence of Full-length inactive AKT1 (P31749 whole entry): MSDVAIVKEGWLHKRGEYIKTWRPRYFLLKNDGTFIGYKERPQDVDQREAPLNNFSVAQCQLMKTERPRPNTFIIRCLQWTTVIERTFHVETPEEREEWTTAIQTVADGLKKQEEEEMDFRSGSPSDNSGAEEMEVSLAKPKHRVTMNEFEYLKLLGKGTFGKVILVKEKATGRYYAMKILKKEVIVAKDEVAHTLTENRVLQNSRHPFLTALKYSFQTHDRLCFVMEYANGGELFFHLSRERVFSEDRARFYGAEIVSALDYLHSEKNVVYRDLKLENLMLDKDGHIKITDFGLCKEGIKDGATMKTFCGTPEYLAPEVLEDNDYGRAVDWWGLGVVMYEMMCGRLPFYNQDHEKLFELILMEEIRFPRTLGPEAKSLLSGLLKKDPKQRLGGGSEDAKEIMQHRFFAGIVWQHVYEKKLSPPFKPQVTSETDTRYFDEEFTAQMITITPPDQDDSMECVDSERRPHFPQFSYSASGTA

SMILES	IC50 [1]	further results
Nc1ncccc1-c1nc2cc(Br)cnc2n1-c1ccc(CNS(=O)(=O)c2cccc3cccnc23)cc1 [Example 164, N-{4-[2-(2-aminopyridin-3-yl)-6-bromo-3H-imidazo[4,5-b]pyridin-3-yl]benzyl}quinoline-8-sulfonamide]	0.62 µM	
CC(=O)Nc1ccc(C(=O)NCc2ccc(-n3c(-c4cccnc4N)nc4cc(C)cnc43)cc2)cc1 [Example 220, 4-acetamido-N-(4-(2-(2-aminopyridin-3-yl)-6-methyl-3H-imidazo[4,5-b]pyridin-3-yl)benzyl)benzamide]	0.054 µM	
CC(=O)Nc1cccc(-c2ccc3nc(-c4cccnc4N)n(-c4ccc(CNC(=O)c5cccc(F)c5)cc4)c3n2)c1 [Example 204, N-(4-(5-(3-acetamidophenyl)-2-(2-aminopyridin-3-yl)-3H-imidazo[4,5-b]pyridin-3-yl)benzyl)-3-fluorobenzamide]	0.0073 µM	
Nc1ncccc1-c1nc2cccnc2n1-c1ccc(CNC(=O)C2Cc3ccccc3C2)cc1 [Example 75]		IC50 [2]: 0.179 µM
Cc1ccc(C)c(S(=O)(=O)NCc2ccc(-n3c(-c4cccnc4N)nc4cc(Br)cnc43)cc2)c1 [Example 167, N-{4-[2-(2-aminopyridin-3-yl)-6-bromo-3H-imidazo[4,5-b]pyridin-3-yl]benzyl}-2,5-dimethylbenzenesulfonamide]	0.48 µM	
Nc1ncccc1-c1nc2cccnc2n1-c1ccc(CNC(=O)c2ccccn2)cc1 [Example 19]		IC50 [2]: 0.344 µM
COc1ccc2nc(-c3cccnc3N)n(-c3ccc(C(C)(C)C)cc3)c2n1 [Example 8]		IC50 [2]: 20.6 µM
Nc1ncccc1-c1nc2cc(-c3ccc(Br)cc3)cnc2n1-c1ccc(CNC(=O)c2ccccc2)cc1 [Example 143, N-{4-[2-(2-aminopyridin-3-yl)-6-(4-bromophenyl)-3H-imidazo[4,5-b]pyridin-3-yl]benzyl}benzamide]		IC50 [2]: 0.17 µM
Nc1ncccc1-c1nc2cc(Br)cnc2n1-c1ccc(CNS(=O)(=O)c2ccsc2)cc1 [Example 169, N-{4-[2-(2-aminopyridin-3-yl)-6-bromo-3H-imidazo[4,5-b]pyridin-3-yl]benzyl}thiophene-3-sulfonamide]	0.19 µM	
CNC(=O)c1cc(F)cc(-c2ccc3nc(-c4cccnc4N)n(-c4ccc(C5(N)CCC5)cc4)c3n2)c1 [Example 432, 3-{3-[4-(1-aminocyclobutyl)phenyl]-2-(2-aminopyridin-3-yl)-3H-imidazo[4,5-b]pyridin-5-yl}-5-fluoro-N-methylbenzamide]		IC50 [3]: 0.0064 µM
Nc1ncccc1-c1nc2cc(C(F)(F)F)cnc2n1-c1ccc(CNC(=O)c2ccccc2)cc1 [Example 199, N-(4-(2-(2-aminopyridin-3-yl)-6-(trifluoromethyl)-3H-imidazo[4,5-b]pyridin-3-yl)benzyl)benzamide]	0.2 µM	
CN1CCOc2cc(-c3ccc4nc(-c5cccnc5N)n(-c5ccc(C6(N)CCC6)cc5)c4n3)ccc21 [Example 433, 3-{3-[4-(1-aminocyclobutyl)phenyl]-5-(4-methyl-3,4-dihydro-2H-1,4-benzoxazin-7-yl)-3H-imidazo[4,5-b]pyridin-2-yl}pyridin-2-amine]		IC50 [3]: 0.0018 µM
Nc1ccc(-n2c(-c3cccnc3N)nc3cccnc32)cc1 [Example 106, hydrochloride]		IC50 [2]: 2.53 µM
Cc1cccc(C(=O)NCc2ccc(-n3c(-c4cccnc4N)nc4cccnc43)cc2)c1 [Example 53]		IC50 [2]: 0.122 µM
CC(=O)Nc1ccc(-c2ccc3nc(-c4cccnc4N)n(-c4ccc(NC(=O)c5ccccc5)cc4)c3n2)cc1 [Example 253, N-(4-(5-(4-acetamidophenyl)-2-(2-aminopyridin-3-yl)-3H-imidazo[4,5-b]pyridin-3-yl)phenyl)benzamide]	0.027 µM	
Nc1ncccc1-c1nc2ccc(-c3c[nH]c4ccncc34)nc2n1-c1ccc(C2(N)CCC2)cc1 [Example 446, 3-{3-[4-(1-aminocyclobutyl)phenyl]-5-(1H-pyrrolo[3,2-c]pyridin-3-yl)-3H-imidazo[4,5-b]pyridin-2-yl}pyridin-2-amine]		IC50 [3]: 0.0089 µM
COc1cccc(S(=O)(=O)NCc2ccc(-n3c(-c4cccnc4N)nc4cc(Br)cnc43)cc2)c1 [Example 149, N-{4-[2-(2-aminopyridin-3-yl)-6-bromo-3H-imidazo[4,5-b]pyridin-3-yl]benzyl}-3-methoxybenzenesulfonamide]		IC50 [2]: 0.26 µM
Nc1ncccc1-c1nc2ccc(-c3cc(O)ccc3F)nc2n1-c1ccc(C2(N)CCC2)cc1 [Example 437, 3-{3-[4-(1-aminocyclobutyl)phenyl]-2-(2-aminopyridin-3-yl)-3H-imidazo[4,5-b]pyridin-5-yl}-4-fluorophenol]		IC50 [3]: 0.014 µM
Cc1cnc2c(c1)nc(-c1cccnc1N)n2-c1ccc(CNC(=O)c2cccc(N(C)C)c2)cc1 [Example 211, N-(4-(2-(2-aminopyridin-3-yl)-6-methyl-3H-imidazo[4,5-b]pyridin-3-yl)benzyl)-3-(dimethylamino)benzamide]	0.061 µM	
CC(=O)Nc1cccc(-c2cnc3c(c2)nc(-c2cccnc2N)n3-c2ccc(CNC(=O)c3ccccc3)cc2)c1 [Example 174, N-(4-{6-[3-(acetylamino)phenyl]-2-(2-aminopyridin-3-yl)-3H-imidazo[4,5-b]pyridin-3-yl}benzyl)benzamide]	0.038 µM	

More lines, main results first:

IC50 [1]	SMILES	further results
0.036 µM	Nc1ncccc1-c1nc2ccc(-c3ccncc3)nc2n1-c1ccc(CNC(=O)c2cccc(F)c2)cc1 [Example 334, N-(4-(2-(2-aminopyridin-3-yl)-5-(pyridin-4-yl)-3H-imidazo[4,5-b]pyridin-3-yl)benzyl)-3-fluorobenzamide]	
0.086 µM	Cc1cc2nc(-c3cccnc3N)n(-c3ccc(CNC(=O)c4ccccc4)cc3)c2nc1Cl [Example 346, N-(4-(2-(2-aminopyridin-3-yl)-5-chloro-6-methyl-3H-imidazo[4,5-b]pyridin-3-yl)benzyl)benzamide]	
0.17 µM	Cc1ccc2nc(-c3cccnc3N)n(-c3ccc(CC(=O)Nc4cccc(F)c4)cc3)c2n1 [Example 300, 2-(4-(2-(2-aminopyridin-3-yl)-5-methyl-3H-imidazo[4,5-b]pyridin-3-yl)phenyl)-N-(3-fluorophenyl)acetamide]	
0.0098 µM	Nc1ncccc1-c1nc2ccc(-c3cncnc3)nc2n1-c1ccc(C2(N)CCC2)cc1 [Example 395, 3-(3-(4-(1-aminocyclobutyl)phenyl)-5-(pyrimidin-5-yl)-3H-imidazo[4,5-b]pyridin-2-yl)pyridin-2-amine]	
0.77 µM	Cc1cnc2c(c1)nc(-c1cccnc1N)n2-c1ccc(CNC(=O)c2ccccn2)cc1 [Example 284, N-(4-(2-(2-aminopyridin-3-yl)-6-methyl-3H-imidazo[4,5-b]pyridin-3-yl)benzyl)picolinamide]	
0.12 µM	Cc1cnc2c(c1)nc(-c1cccnc1N)n2-c1ccc(CNC(=O)c2ccc(C)c(F)c2)cc1 [Example 278, N-(4-(2-(2-aminopyridin-3-yl)-6-methyl-3H-imidazo[4,5-b]pyridin-3-yl)benzyl)-3-fluoro-4-methylbenzamide]	
0.45 µM	CC(C)(C)OC(=O)NCc1ccc(-n2c(-c3cccnc3N)nc3ccc(-c4ccc(CO)cc4)nc32)cc1 [Example 288, tert-butyl 4-(2-(2-aminopyridin-3-yl)-5-(4-(hydroxymethyl)phenyl)-3H-imidazo[4,5-b]pyridin-3-yl)benzylcarbamate]	
0.0087 µM	NC(=O)c1ccc(-c2ccc3nc(-c4cccnc4N)n(-c4ccc(C5(N)CCC5)cc4)c3n2)cc1 [Example 387, 4-(3-(4-(1-aminocyclobutyl)phenyl)-2-(2-aminopyridin-3-yl)-3H-imidazo[4,5-b]pyridin-5-yl)benzamide]	
0.0066 µM	Nc1ncccc1-c1nc2ccc(-c3cc4ccccc4o3)nc2n1-c1ccc(C2(N)CCC2)cc1 [Example 423, 3-{3-[4-(1-aminocyclobutyl)phenyl]-5-(1-benzofuran-2-yl)-3H-imidazo[4,5-b]pyridin-2-yl}pyridin-2-amine]	
0.0097 µM	CN(C)c1ccc(-c2ccc3nc(-c4cccnc4N)n(-c4ccc(C5(N)CCC5)cc4)c3n2)cc1 [Example 410, 3-{3-[4-(1-aminocyclobutyl)phenyl]-5-[4-(dimethylamino)phenyl]-3H-imidazo[4,5-b]pyridin-2-yl}pyridin-2-amine]	
0.077 µM	Cc1cc2nc(-c3cccnc3N)n(-c3ccc(CNC(=O)c4ccccc4)cc3)c2nc1C [Example 322, N-(4-(2-(2-aminopyridin-3-yl)-5,6-dimethyl-3H-imidazo[4,5-b]pyridin-3-yl)benzyl)benzamide]	
0.01 µM	Nc1ncccc1-c1nc2ccc(-c3ccsc3)nc2n1-c1ccc(C2(N)CCC2)cc1 [Example 427, 3-{3-[4-(1-aminocyclobutyl)phenyl]-5-(3-thienyl)-3H-imidazo[4,5-b]pyridin-2-yl}pyridin-2-amine]	
0.003 µM	Nc1ncccc1-c1nc2ccc(-c3cccc(C(=O)N4CCOCC4)c3)nc2n1-c1ccc(C2(N)CCC2)cc1 [Example 388, (3-(3-(4-(1-aminocyclobutyl)phenyl)-2-(2-aminopyridin-3-yl)-3H-imidazo[4,5-b]pyridin-5-yl)phenyl)(morpholino)methanone]	
0.079 µM	Cc1noc(C)c1-c1ccc2nc(-c3cccnc3N)n(-c3ccc(CNC(=O)c4cccc(F)c4)cc3)c2n1 [Example 310, N-(4-(2-(2-aminopyridin-3-yl)-5-(3,5-dimethylisoxazol-4-yl)-3H-imidazo[4,5-b]pyridin-3-yl)benzyl)-3-fluorobenzamide]	
0.15 µM	CC(=O)Nc1cccc(NC(=O)Cc2ccc(-n3c(-c4cccnc4N)nc4ccc(C)nc43)cc2)c1 [Example 323, N-(3-acetamidophenyl)-2-(4-(2-(2-aminopyridin-3-yl)-5-methyl-3H-imidazo[4,5-b]pyridin-3-yl)phenyl)acetamide]	

Reference: US8501770B2 (ArQule, Inc., priority 2009, dated 2013)
